The experiment deals with T1, Human A2A adenosine receptor (Homo sapiens, UniProt P29274).
T1 construct: expressed in transfected cells
T1 sequence (P29274 whole entry): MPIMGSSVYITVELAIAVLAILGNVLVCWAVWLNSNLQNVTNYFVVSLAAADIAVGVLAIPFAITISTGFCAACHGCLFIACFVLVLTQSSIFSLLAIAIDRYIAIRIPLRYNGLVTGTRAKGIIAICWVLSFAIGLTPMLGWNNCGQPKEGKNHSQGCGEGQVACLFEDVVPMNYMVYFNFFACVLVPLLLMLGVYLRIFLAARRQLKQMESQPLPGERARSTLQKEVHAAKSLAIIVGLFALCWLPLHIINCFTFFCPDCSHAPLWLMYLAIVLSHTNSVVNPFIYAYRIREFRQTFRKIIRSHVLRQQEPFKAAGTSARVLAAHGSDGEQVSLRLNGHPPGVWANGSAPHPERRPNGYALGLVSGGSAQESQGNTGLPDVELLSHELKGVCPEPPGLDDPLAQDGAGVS
Put plainly: Radioligand binding for A2A adenosine receptor ([3H]-ZM-241385 competition, HEK-A2A membranes). Conditions: HEK-293 membranes, 2 nM [3H]-ZM-241385, read-out: A2A Cell based Functional Ki*.
Source text: […]
As for `COCCOc1ccc(N2CCN(CCn3c(=O)n(C)c4c3nc(N)n3nc(-c5ccco5)nc43)CC2)cc1` [Example A1], the Ki is 0.1 to 10 nM.
As for `Cc1ccc(N2CCN(CCn3c(=O)n(C)c4c3nc(N)n3nc(-c5ccco5)nc43)CC2)cc1` [Example A7, 5-Amino-8-(2-furyl)-1-methyl-3-[2-[4-(p-tolyl)piperazin-1-yl]ethyl]-[1,2,4]triazolo[5,1-f]purin-2-one], the Ki is 0.1 to 10 nM.
Turning to `COc1ccc(N2CCN(CCn3c(=O)n(C)c4c3nc(N)n3nc(-c5ccco5)nc43)CC2)c(F)c1` [Example A9], the Ki lay in the range of 0.1 to 10 nM.
For `Cn1c(=O)n(CCN2CCN(c3ccc(C(C)(C)O)cc3)CC2)c2nc(N)n3nc(-c4ccco4)nc3c21` [Example A13], the Ki lay in the range of 0.1 to 10 nM.
Next, `COCCOc1ccc(N2CCN(CCn3c(=O)n(C)c4c3nc(N)n3nc(-c5ccco5)nc43)CC2)c(F)c1` [Example A31]: 0.1 to 10 nM; `Cn1c(=O)n(CCN2CCN(CC3CC3)CC2)c2nc(N)n3nc(-c4ccco4)nc3c21` [Example A36, 5-Amino-3-[2-[4-(cyclopropylmethyl)piperazin-1-yl]ethyl]-8-(2-furyl)-1-methyl-[1,2,4]triazolo[5,1-f]purin-2-one]: 10 to 100 nM.
Next, `CN(C)S(=O)(=O)N1CCN(CCn2c(=O)n(C)c3c2nc(N)n2nc(-c4ccco4)nc32)CC1` [Example A38, 4-[2-[5-Amino-8-(2-furyl)-1-methyl-2-oxo-[1,2,4]triazolo[5,1-f]purin-3-yl]ethyl]-N,N-dimethyl-piperazine-1-sulfonamide]: 0.1 to 10 nM.
Next, `Cn1c(=O)n(CCN2CCN(c3ccc(OC4CCOC4)cc3)CC2)c2nc(N)n3nc(-c4ccco4)nc3c21` (stereo not drawn) [Example A39, 5-Amino-8-(2-furyl)-1-methyl-3-[2-[4-(4-tetrahydrofuran-3-yloxyphenyl)piperazin-1-yl]ethyl]-[1,2,4]triazolo[5,1-f]purin-2-one]: 0.1 to 10 nM; `Cc1cnc2c(c1)CN(CCn1c(=O)n(C)c3c1nc(N)n1nc(-c4ccco4)nc31)CC2` [Example A42, 5-Amino-8-(2-furyl)-1-methyl-3-[2-(3-methyl-7,8-dihydro-5H-1,6-naphthyridin-6-yl)ethyl]-[1,2,4]triazolo[5,1-f]purin-2-one]: 0.1 to 10 nM; `COc1ccc(CCn2c(=O)n(C)c3c2nc(N)n2nc(-c4ccco4)nc32)cc1` [Example A57]: 0.1 to 10 nM.
As to `Cn1c(=O)n(CCN2CCN(c3ccc(OC(F)F)cc3)CC2)c2nc(N)n3nc(-c4ccco4)nc3c21` [Example A58, 5-amino-3-[2-[4-[4-(difluoromethoxy)phenyl]piperazin-1-yl]ethyl]-8-(2-furyl)-1-methyl-[1,2,4]triazolo[5,1-f]purin-2-one], the Ki lay within 0.1 to 10 nM.
As to `Cn1c(=O)n(CCN2CCN(C(=O)C3CC3)CC2)c2nc(N)n3nc(-c4ccco4)nc3c21` [Example A62, 5-Amino-3-[2-[4-(cyclopropanecarbonyl)piperazin-1-yl]ethyl]-8-(2-furyl)-1-methyl-[1,2,4]triazolo[5,1-f]purin-2-one], the Ki lay within 0.1 to 10 nM.
Next, `Cn1c(=O)n(CCN2CCN(C(=O)CC3CC3)CC2)c2nc(N)n3nc(-c4ccco4)nc3c21` [Example A63, 5-Amino-3-[2-[4-(2-cyclopropylacetyl)piperazin-1-yl]ethyl]-8-(2-furyl)-1-methyl-[1,2,4]triazolo[5,1-f]purin-2-one]: 10 to 100 nM; `CCOc1ccc(N2CCN(CCn3c(=O)n(CC4CC4)c4c3nc(N)n3nc(-c5ccco5)nc43)CC2)cc1` [Example C1, 5-Amino-1-(cyclopropylmethyl)-3-[2-[4-(4-ethoxyphenyl)piperazin-1-yl]ethyl]-8-(2-furyl)-[1,2,4]triazolo[5,1-f]purin-2-one]: 0.1 to 10 nM; `CCn1c(=O)n(CCn2cc(-c3ccc(F)cc3F)cn2)c2nc(N)n3nc(-c4ccco4)nc3c21` [Example D3]: 0.1 to 10 nM.
For the compound `Nc1nc2c(c3nc(-c4ccco4)nn13)n(CC1CC1)c(=O)n2CCn1cc(C(=O)O)cn1` [Example E1, 1-[2-[5-Amino-1-(cyclopropylmethyl)-8-(2-furyl)-2-oxo-[1,2,4]triazolo[5,1-f]purin-3-yl]ethyl]pyrazole-4-carboxylic acid], the Ki lay within 0.1 to 10 nM.
Next, `CCn1c(=O)n(CCN2CCN(c3ccc(F)cc3F)CC2)c2nc(N)n3nc(-c4ccco4)nc3c21` [Example G2]: 10 to 100 nM.
For the compound `Nc1nc2c(c3nc(-c4ccco4)nn13)n(CC(F)(F)F)c(=O)n2CCN1CCN(c2ccc(F)cc2F)CC1` [Example H2, 5-Amino-3-{2-[4-(2,4-difluoro-phenyl)-piperazin-1-yl]-ethyl}-8-furan-2-yl-1-(2,2,2-trifluoro-ethyl)-1,3-dihydro-[1,2,4]triazolo[5,1-f]purin-2-one], the Ki fell in the range of 0.1 to 10 nM.
For `COCCOc1ccc(N2CCN(CCn3c(=O)n(C)c4c3nc(N)n3nc(-c5nccs5)nc43)CC2)cc1` [Example M1, 5-Amino-3-[2-[4-[4-(2-methoxyethoxy)phenyl]piperazin-1-yl]ethyl]-1-methyl-8-thiazol-2-yl-[1,2,4]triazolo[5,1-f]purin-2-one], the Ki was 0.1 to 10 nM.
To `Cn1c(=O)n(CCN2CCN(C(=O)CC3CC3)CC2)c2nc(N)n3nc(-c4nccs4)nc3c21` [Example M3, 5-Amino-3-[2-[4-(2-cyclopropylacetyl)piperazin-1-yl]ethyl]-1-methyl-8-thiazol-2-yl-[1,2,4]triazolo[5,1-f]purin-2-one] belongs 10 to 100 nM; to `Cc1cnc2c(c1)CN(CCn1c(=O)n(C)c3c1nc(N)n1nc(-c4nccs4)nc31)CC2` [Example M6, 5-Amino-1-methyl-3-[2-(3-methyl-7,8-dihydro-5H-1,6-naphthyridin-6-yl)ethyl]-8-thiazol-2-yl-[1,2,4]triazolo[5,1-f]purin-2-one], 0.1 to 10 nM.

Values taken from patent US9006177B2 (Advinus Therapeutics Limited, priority 2010, dated 2015).
